Test results from ChEMBL document CHEMBL3885861, “Open TG-GATES”.

Species: Rattus norvegicus
Test: Open TG-GATES - Regimen: Single
Type: toxicity, organism-based, Sprague-Dawley
Design: regimen Single, gender Male, age 6 weeks
Details: in vivo, po, route gavage; for APTT / Bas / Eos / Fbg / Hb / Ht / Lym / MCHC / MCV / Mono / Neu / PT / Plat / RBC / Ret / WBC: tissue Blood; for KIDNEY_L / KIDNEY_R / KIDNEY_TOTAL: tissue Kidney; for LIVER: tissue Liver; for ALP / ALT / AST / BUN / CRE / Ca / Cl / DBIL / GLC / IP / K / LDH / Na / PL / RALB / TBIL / TC / TG / TP / gamma-GTP: tissue Plasma
[1] = 0 mg/kg, 3 h, dose level Control
[2] = 0 mg/kg, 6 h, dose level Control
[3] = 0 mg/kg, 9 h, dose level Control
[4] = 0 mg/kg, 24 h, dose level Control

CN(C)C(=N)N=C(N)N [METFORMIN]
TERMINAL_BW [1]: 200.9 g
APTT [1]: 16.9 s
Bas [1]: 0%
Eos [1]: 0.6%
Fbg [1]: 245.6 mg/dL
Hb [1]: 13.1 g/dL
Ht [1]: 39.6%
Lym [1]: 76.8%
MCHC [1]: 33%
MCV [1]: 65.3 fL
Mono [1]: 3.4%
Neu [1]: 18.4%
PT [1]: 12.3 s
Plat [1]: 111.6 x10_4/uL
RBC [1]: 606.6 x10_4/ul
Ret [1]: 10.1%
WBC [1]: 96.1 x10_2/uL
KIDNEY_L [1]: 0.9 g
KIDNEY_R [1]: 0.9 g
KIDNEY_TOTAL [1]: 1.8 g
LIVER [1]: 8.5 g
ALP [1]: 1612 IU/L
ALT [1]: 43.6 IU/L
AST [1]: 74.2 IU/L
BUN [1]: 9.2 mg/dL
CRE [1]: 0.2 mg/dL
Ca [1]: 11.1 mg/dL
Cl [1]: 104 meq/L
DBIL [1]: 0.016 mg/dL
GLC [1]: 179.8 mg/dL
IP [1]: 9.2 mg/dL
K [1]: 4.2 meq/L
LDH [1]: 58.2 IU/L
Na [1]: 140 meq/L
PL [1]: 136.6 mg/dL
RALB [1]: 2.5 g/dL
TBIL [1]: 0.052 mg/dL
TC [1]: 87 mg/dL
TG [1]: 42.2 mg/dL
TP [1]: 5.2 g/dL
gamma-GTP [1]: 1.4 IU/L
TERMINAL_BW [2]: 202.6 g
APTT [2]: 16.1 s
Bas [2]: 0%
Eos [2]: 0.8%
Fbg [2]: 261 mg/dL
Hb [2]: 12.9 g/dL
Ht [2]: 38.9%
Lym [2]: 77.2%
MCV [2]: 62.9 fL
Mono [2]: 3%
Neu [2]: 18.4%
PT [2]: 12.2 s
Plat [2]: 113.4 x10_4/uL
RBC [2]: 618.4 x10_4/ul
Ret [2]: 9.2%
WBC [2]: 92.1 x10_2/uL
KIDNEY_L [2]: 0.9 g
KIDNEY_R [2]: 0.9 g
KIDNEY_TOTAL [2]: 1.8 g
LIVER [2]: 8 g
ALP [2]: 1285 IU/L
ALT [2]: 44.8 IU/L
AST [2]: 78.8 IU/L
BUN [2]: 7.6 mg/dL
CRE [2]: 0.1 mg/dL
Ca [2]: 10.7 mg/dL
Cl [2]: 104.8 meq/L
DBIL [2]: 0.006 mg/dL
GLC [2]: 161 mg/dL
IP [2]: 9.9 mg/dL
K [2]: 4.1 meq/L
LDH [2]: 64 IU/L
Na [2]: 139.4 meq/L
PL [2]: 121 mg/dL
RALB [2]: 2.4 g/dL
TBIL [2]: 0.046 mg/dL
TG [2]: 27.2 mg/dL
TP [2]: 5 g/dL
gamma-GTP [2]: 1 IU/L
TERMINAL_BW [3]: 201 g
APTT [3]: 16 s
Bas [3]: 0%
Eos [3]: 1%
Fbg [3]: 244.8 mg/dL
Hb [3]: 12.4 g/dL
Lym [3]: 73.8%
MCV [3]: 64.5 fL
Mono [3]: 3.2%
Neu [3]: 21.4%
PT [3]: 12.2 s
Plat [3]: 107.6 x10_4/uL
RBC [3]: 577.8 x10_4/ul
Ret [3]: 10%
WBC [3]: 75.6 x10_2/uL
KIDNEY_L [3]: 0.9 g
KIDNEY_R [3]: 0.9 g
KIDNEY_TOTAL [3]: 1.7 g
LIVER [3]: 7.7 g
ALP [3]: 1175 IU/L
ALT [3]: 41.6 IU/L
AST [3]: 69.6 IU/L
BUN [3]: 9 mg/dL
CRE [3]: 0.1 mg/dL
Ca [3]: 10.6 mg/dL
Cl [3]: 105 meq/L
DBIL [3]: 0.008 mg/dL
GLC [3]: 164.8 mg/dL
IP [3]: 10.5 mg/dL
K [3]: 4 meq/L
LDH [3]: 49 IU/L
Na [3]: 141 meq/L
PL [3]: 136.4 mg/dL
RALB [3]: 2.5 g/dL
TBIL [3]: 0.042 mg/dL
TC [3]: 87 mg/dL
TG [3]: 35.6 mg/dL
TP [3]: 5.1 g/dL
gamma-GTP [3]: 1 IU/L
TERMINAL_BW [4]: 207.9 g
APTT [4]: 16.4 s
Bas [4]: 0%
Eos [4]: 1%
Fbg [4]: 230.4 mg/dL
Hb [4]: 13 g/dL
Ht [4]: 38.7%
Lym [4]: 77%
MCHC [4]: 33.5%
Mono [4]: 3.8%
Neu [4]: 17.8%
PT [4]: 12.5 s
Plat [4]: 115 x10_4/uL
RBC [4]: 595.2 x10_4/ul
Ret [4]: 8.9%
WBC [4]: 101.4 x10_2/uL
KIDNEY_L [4]: 0.9 g
KIDNEY_R [4]: 0.9 g
KIDNEY_TOTAL [4]: 1.8 g
LIVER [4]: 10 g
ALP [4]: 1728.6 IU/L
ALT [4]: 49.8 IU/L
AST [4]: 78.2 IU/L
BUN [4]: 16 mg/dL
CRE [4]: 0.2 mg/dL
Ca [4]: 11.4 mg/dL
Cl [4]: 103.8 meq/L
DBIL [4]: 0.012 mg/dL
GLC [4]: 173 mg/dL
IP [4]: 8.6 mg/dL
K [4]: 3.9 meq/L
LDH [4]: 63.6 IU/L
Na [4]: 141.2 meq/L
PL [4]: 139 mg/dL
RALB [4]: 2.6 g/dL
TBIL [4]: 0.038 mg/dL
TG [4]: 89.6 mg/dL
TP [4]: 5.5 g/dL
gamma-GTP [4]: 1 IU/L
TERMINAL_BW (100 mg/kg, 3 h, dose level Low): 201 g
